Values joined by “and” are separate entries in the source; they are usually repeats but may differ in a detail not shown here. Identical values can stand only once.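 Where inhibition never reached the appropriate level, the endpoint shown equals the highest concentration tested. Otherwise, values were interpolated linearly from a five-concentration, 48-hour dose response in 96-well plates. GI50: concentration for 50% inhibition of growth. TGI: total growth inhibition.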
Key:
Assay in all cases: DTP human tumour cell line panel, 48 h
[1] = tested on: NCI-H23 lung
[2] = tested on: BT-549 breast
[3] = tested on: LOX IMVI melanoma
[4] = tested on: SR leukemia
[5] = tested on: DU-145 prostate
[6] = tested on: HL-60(TB) leukemia
[7] = tested on: A549 NSCLC
[8] = tested on: SF-539 CNS
[9] = tested on: M14 melanoma
[10] = tested on: NCI/ADR-RES ovarian

CC1OC(OC2C(OC(=O)[C@]34CCC(C)(C)C[C@H]3C3=CC[C@@H]5[C@@]6(C)CC[C@H](OC7OC(C(=O)O)C(O)C(OC8OCC(O)C(O)C8O)C7O)C(C)(C)[C@@H]6CC[C@@]5(C)[C@]3(C)CC4)OCC(O)C2O)C(O)C(OC2OCC(O)C(O)C2O)C1OC1OCC(O)C(OC2OCC(O)C(O)C2O)C1O (some centres undefined)
TGI [1]: 21.7 µM and 33 µM
GI50 [2]: 9.13 µM and 20.3 µM
TGI [2]: 25.6 µM and 46.8 µM
TGI [3]: 26.3 µM and 35.5 µM
GI50 [4]: 2.83 µM and 11.1 µM
TGI [4]: 8.95 µM and 26.8 µM
TGI [5]: 40.6 µM and 85.1 µM
GI50 [6]: 2.28 µM and 12.6 µM
TGI [6]: 6.18 µM and 29.5 µM
GI50 [7]: 5.06 µM and 14.3 µM
TGI [7]: 16.9 µM and 28.4 µM
TGI [8]: 68.7 µM
GI50 [9]: 5.97 µM and 19.2 µM
TGI [9]: 17 µM and 34 µM
TGI [10]: 24.4 µM and 67.7 µM

Cc1ccc(/C(O)=C/c2nc3ccccc3s/c2=N/CS(=O)(=O)c2ccc(C)cc2)cc1
TGI [1]: > 10 µM
TGI [2]: > 10 µM
TGI [3]: > 10 µM
TGI [4]: > 10 µM
TGI [5]: > 10 µM
TGI [6]: > 10 µM
TGI [7]: > 10 µM
TGI [8]: > 10 µM
TGI [9]: > 10 µM
TGI [10]: > 10 µM

Nc1ccc(C(=O)c2cn(CCN3CCOCC3)c3ccccc23)c2ccccc12
TGI [1]: 68 µM
TGI [2]: 58.3 µM
TGI [3]: 73.1 µM
TGI [4]: 65.6 µM
TGI [5]: > 100 µM
TGI [6]: 44.8 µM
TGI [7]: > 100 µM
TGI [8]: > 100 µM
TGI [9]: > 100 µM
TGI [10]: 65.3 µM

CCOC(=O)C(Cc1cccn1C(=O)OC(C)(C)C)[N+](=O)[O-] (centres undefined)
TGI [1]: > 100 µM
TGI [2]: > 100 µM
TGI [3]: 32.1 µM
TGI [4]: 45 µM
TGI [5]: 70.2 µM
TGI [6]: 48.1 µM
TGI [7]: > 100 µM
TGI [8]: 58.7 µM
TGI [9]: 40.9 µM
TGI [10]: > 100 µM

CC1=C(C(=O)c2ccccc2)C23C(=O)N(c4ccccc4)C(=O)C2=C(O)C=CC3(O)N1 (centres undefined)
TGI [1]: > 100 µM
TGI [2]: 49.2 µM
TGI [3]: 61.1 µM
TGI [4]: 46.3 µM
TGI [5]: > 100 µM
TGI [6]: 50.7 µM
TGI [7]: > 100 µM
TGI [8]: > 100 µM
TGI [9]: > 100 µM
TGI [10]: > 100 µM

Clc1ccc(C2Nc3ccccc3C3=NCCN32)cc1 (centres undefined)
TGI [1]: 55.4 µM
TGI [2]: 56.5 µM
TGI [3]: 36.2 µM
TGI [4]: 59.2 µM
TGI [5]: > 100 µM
TGI [6]: 57.1 µM
TGI [7]: > 100 µM
TGI [8]: 30.6 µM
TGI [9]: 30.6 µM
TGI [10]: 60.4 µM

O=C(NCc1cccc2ccccc12)N/N=C\c1ccc(Cl)cc1
TGI [1]: > 100 µM
TGI [2]: > 100 µM
TGI [3]: > 100 µM
TGI [4]: > 100 µM
TGI [5]: > 100 µM
TGI [6]: > 100 µM
TGI [8]: > 100 µM
TGI [9]: > 100 µM
TGI [10]: > 100 µM
